Test results taken from patent US20180030482A1 (Moralco B.V., priority 2014, published 2018).
Several values for one entry are separate records, joined by “and”; a condition that tells them apart may be missing. Equal entries are not always repeated.

Assays:
S. cerevisiae CBS 8066 [1] = assay: Small-scale batch cultivation testing the effect of acetaldehyde on formation of ethanol and glycerol; assay type: cell-based, Saccharomyces cerevisiae; details: 1.76 mM acetaldehyde in, single addition at start; 280 mM glucose at start; 90 minutes of incubation
Experimental: (§1) The column was eluted at 60° C. with 0.5 g/l H2S04 at a flow rate of 0.6 ml min^−1 . Detection was by means of a Waters 2410 refractive-index detector and a Waters 2487 UV detector. Initial and final glycerol concentrations were further determined using an enzymatic determination kit (Rbiopharm AG, Darmstadt, Germany).
Carbon dioxide was allowed to escape from the bottles by inserting a needle in the septum of the cap. The bottles were incubated stationary. A sample per bottle was taken at the start of the experiment and after 90 minutes of incubation.
The initial cell concentration was 0.45 g/l dry biomass. Acetaldehyde was supplied to the bottle in a single addition at the start of the incubation. In a separate control run, no acetaldehyde was supplied.

Lactococcus lactis = details: cited from earlier work
[2] = kH=Ca/Pg, concentration in water over partial pressure in the gas phase; cited from earlier work
[3] = test system: lactic acid bacteria, belonging to Lactobacillus, Pediococcus, Leuconostoc and Weissella; assay: Semi-anoxic co-culture of yeast with lactic acid bacteria at increasing acetaldehyde concentrations; assay type: cell-based; details: increasing concentrations of acetaldehyde in subsequent batches; without acetaldehyde the bacteria remained present
Experimental: Media for plates (1.5% agar) for S. cerevisiae were the mineral salts medium supplement with 2% glucose and for lactic acid bacteria the de Man, Rogosa and Sharpe (MRS) medium. Cycloheximide (0.1 g/l) was added to the plates in case mixed cultures of yeast and lactic acid bacteria were studied.
Semi-anoxic batch cultivation of the yeasts together with lactic acid bacteria was done at 30° C. in 100-ml Erlenmeyer flasks. The flasks contained 50 ml mineral salts medium supplied with glucose (12 g/l) and they were incubated without shaking. Air could enter in the flasks via cotton plugs.
S. cerevisiae CEN.PK2-1C was subjected to evolutionary engineering analogous to the procedure described above, except that now semi-anoxic conditions were employed. Eight strains of lactic acid bacteria, belonging to Lactobacillus, Pediococcus, Leuconostoc and Weissella, were inoculated as well. The dynamics of the quantitative growth of the 9 organisms thus present as co-culture was followed during the procedure of evolutionary engineering. During each successive transfer step, the suspension after growth was plated on media that allow growth of either S. cerevisiae or of the 8 strains of lactic acid bacteria. […] Under this circumstance, the lactic acid bacteria remained present in the system.

Ethanol Red strain = assay: Batch fermentation testing acetaldehyde additions at high ethanol concentrations; assay type: cell-based; details: acetaldehyde added once ethanol had reached 80 g/l, controlled between 0.06 and 0.1 g/l; 180 minutes without acetaldehyde
Experimental: The stirring speed was set at 300 r.p.m. and the pH of the mineral salts medium containing 280 g/l glucose was kept at 5 by adding 2 M NaOH. The condenser at the outlet of the gas stream was connected to a cryostat and cooled at 2° C. The condensate was returned into the fermentation vessel. […] Sampling was from a loop kept at 35° C. for circulating gas from the headspace. […] The solution entered in the aqueous phase via a needle at the outlet of the tubing.
The mineral salts medium was employed with the addition of yeast extract at 1 g/l. The initial cell concentration was 0.5 g/l dry biomass. Air was supplied to the headspace of the fermenter at 15 ml/min during the first 2 hours of cultivation after which conditions were kept anoxic. Glucose was added initially at 230 g/l. […] The concentration was monitored from the headspace and controlled in the fermenter liquid between 0.06 and 0.1 g/l. In a control experiment, no acetaldehyde was supplied.

S. cerevisiae CEN.PK2-1C = assay: Evolutionary engineering for enhanced tolerance to acetaldehyde (oxic batch cultivation); assay type: cell-based, Saccharomyces cerevisiae; details: batch system; compared to the parent strain in the absence of acetaldehyde
Experimental: The flasks contained 20 ml mineral salts medium supplied with glucose (12 g/l) and they were incubated on a rotary shaker at 400 r.p.m. Air could enter in the flasks via cotton plugs.
The organisms were cultivated under oxic conditions in a batch-wise mode. The initial pH of the mineral salts medium was set at 6 by titrating with KOH and glucose was added at 12 g/l. […] The newly acquired strains retained their ability to withstand higher acetaldehyde levels also when cultivating them anoxically in mineral salts medium with glucose and for prolonged periods of times. This subculturing was by taking an aliquot of 0.5 ml from a culture that had consumed all glucose and by transferring this inoculum to fresh medium (50 ml).

S. cerevisiae CBS 8066 [4] = assay: Anoxic chemostat fermentation under glucose limitation in absence or presence of acetaldehyde; assay type: cell-based, Saccharomyces cerevisiae; details: for Δ ethanol produced / Δ glycerol produced: relative to steady state 1 without acetaldehyde; for acetaldehyde concentration in chemostat sample / acetic acid concentration in chemostat sample / ethanol concentration in chemostat sample / glucose concentration in chemostat sample / glycerol concentration in chemostat sample / pyruvic acid concentration in chemostat sample / succinic acid concentration in chemostat sample: dilution rate 0.11 h^−1, duplicate samples A and B
Experimental: as §1
The mineral salts medium employed was based on standard media (Bruinenberg et al. 1983. Journal of General Microbiology 129:965-971; Verduin et al 1990. Journal of General Microbiology 136:395-403). It contained the following per liter of demineralized water: (NH4)2SO4, 5 g; KH2PO4, 3 g; MgSO4.7H2O, 0.5 g; EDTA, 15 mg; ZnSO4.7H20, 4.5 mg; CoCl2 6H2O, 0.3 mg; MnCl2 4H20, 1 mg; CuSO4 5H20, 0.3 mg; CaCl2. 2H20, 4.5 mg; FeSO4 7H20, 3 mg; Na2MoO4. 2H2O, 0.4 mg; H3BO3, 1 mg; KI, 0.1 mg; and 0.025 ml silicone antifoam (BDH). After heat sterilization at 120° C. and cooling, filter sterilized vitamins were added: biotin, 0.05 mg; calcium pantothenate, 1 mg; nicotinic acid, 1 mg; inositol, 25 mg; thiamin.HCl, 1 mg; pyridoxine.HCl, 1 mg; and para-aminobenzoic acid, 0.2 mg. Ergosterol and Tween 80 were dissolved in pure ethanol and steamed at 100° C. for 10 minutes before they were added to the medium to give final concentrations of 10 and 400 mg/l, respectively, and a final concentration of 38 mM ethanol. […] The sterilized glucose solution was added to the sterile mineral salts medium to give the required final concentration.
Anoxic chemostat cultivation of the yeasts was done at 30° C. in a fermenter with a working volume of 1 liter and at a stirring speed of 600 r.p.m. The pH was automatically controlled at pH=5 by titration with 2 M KOH. The condenser at the outlet of the gas stream was connected to a cryostat and cooled at 2° C. The condensate was returned into the fermentation vessel. The tubing on the entire fermenter set-up (including medium- and waste-reservoirs) consisted of material (Norprene tubing) that is very poorly permeable for oxygen. The fermenter and the medium reservoir (with a magnetic stirrer) were sparged with certificated ultra-pure nitrogen prior to the addition of acetaldehyde to the reservoir.
Strain S. cerevisiae CBS 8066 was cultivated in chemostat culture at a dilution rate of 0.11 h^−1. The glucose concentration in the medium reservoir was […] in each run. Three separate steady states were obtained in either the absence or presence of acetaldehyde. The effect of the aldehyde on the fermentation was tested by adding the compound to the medium reservoir after a steady state situation in its absence (medium and samples “1”) had been established. […] In each of the three steady states (after 3-5 volume changes), the fermentation medium in the fermenter was analyzed for various compounds as summarized in Tables 1 and 2.

[5] = Steady state 2 (6 mM acetaldehyde supplied)
[6] = Steady state 3 (15 mM acetaldehyde supplied)
[7] = steady state 2, 6 mM acetaldehyde supplied
[8] = steady state 3, 15 mM acetaldehyde supplied

CC=O [acetaldehyde]
Acetaldehyde at end (S. cerevisiae CBS 8066 [1]): 1.01 mM | Ethanol at end (S. cerevisiae CBS 8066 [1]): 6.67 mM | Glycerol at end (S. cerevisiae CBS 8066 [1]): 0.58 mM | concentration resulting in a reduction of the growth rate by 50% (Lactococcus lactis): 0.4 kg/m^3 | minimum inhibitory concentration (MIC) (Lactococcus lactis): 35 mM and 1.5 kg/m^3 | IC50 (Lactococcus lactis; read-out: concentration resulting in a reduction of the growth rate by 50%): 9 mM | Henry's law constant kH [2]: 15 M/atm | fate of the lactic acid bacteria in the co-culture [3]: disappeared | time required to reach 98 g/l of ethanol in the liquid (Ethanol Red strain): 158 min | acetaldehyde concentration in whose presence the evolved strain grew without a noticeable change in growth rate (S. cerevisiae CEN.PK2-1C): 0.5 g/L | acetaldehyde consumed (S. cerevisiae CBS 8066 [4]; [5]): -6 mM | glucose consumed (S. cerevisiae CBS 8066 [4]; [5]): 136 mM | Δ ethanol produced (S. cerevisiae CBS 8066 [4]; [5]): 15 mM | Δ glycerol produced (S. cerevisiae CBS 8066 [4]; [5]): -6 mM | acetaldehyde consumed (S. cerevisiae CBS 8066 [4]; [6]): -16 mM | glucose consumed (S. cerevisiae CBS 8066 [4]; [6]): 136 mM | Δ ethanol produced (S. cerevisiae CBS 8066 [4]; [6]): 27 mM | Δ glycerol produced (S. cerevisiae CBS 8066 [4]; [6]): -11 mM | acetaldehyde concentration in chemostat sample (S. cerevisiae CBS 8066 [4]; [7]): 0.03 mM | acetic acid concentration in chemostat sample (S. cerevisiae CBS 8066 [4]; [7]): 0.64 mM and 0.54 mM | ethanol concentration in chemostat sample (S. cerevisiae CBS 8066 [4]; [7]): 243.13 mM and 244.74 mM | glucose concentration in chemostat sample (S. cerevisiae CBS 8066 [4]; [7]): 0.48 mM and 0.46 mM | glycerol concentration in chemostat sample (S. cerevisiae CBS 8066 [4]; [7]): 9.47 mM and 9.60 mM | pyruvic acid concentration in chemostat sample (S. cerevisiae CBS 8066 [4]; [7]): 0.56 mM and 0.51 mM | succinic acid concentration in chemostat sample (S. cerevisiae CBS 8066 [4]; [7]): 0.43 mM and 0.45 mM | acetaldehyde concentration in chemostat sample (S. cerevisiae CBS 8066 [4]; [8]): 0.04 mM | acetic acid concentration in chemostat sample (S. cerevisiae CBS 8066 [4]; [8]): 0.78 mM and 0.69 mM | ethanol concentration in chemostat sample (S. cerevisiae CBS 8066 [4]; [8]): 255.35 mM and 255.25 mM | glucose concentration in chemostat sample (S. cerevisiae CBS 8066 [4]; [8]): 0.44 mM and 0.48 mM | glycerol concentration in chemostat sample (S. cerevisiae CBS 8066 [4]; [8]): 4.04 mM and 4.02 mM | pyruvic acid concentration in chemostat sample (S. cerevisiae CBS 8066 [4]; [8]): 0.48 mM | succinic acid concentration in chemostat sample (S. cerevisiae CBS 8066 [4]; [8]): 0.45 mM and 0.50 mM

CCO [ethanol]
Henry's law constant kH [2]: approximately 200 M/atm

O=O [oxygen]
Henry's law constant kH [2]: 1.3*10^−3 M/atm
